{
  "source": "patent US20120129721A1",
  "about": "“URINARY GM2 ACTIVATOR PROTEIN AS A MARKER OF ACUTE RENAL FAILURE OR THE RISK OF […] RENAL FAILURE” (priority 2009, published 2012)",
  "key": {"[1]": {"system": "GM2 activator protein (GM2AP) in urine", "excerpt": "(§1) In-house bred, female Wistar rats weighing 190-230 g were divided in the following experimental groups (FIG. 1): (i) Control: rats treated i.p. during 7-13 days with saline (0.9% NaCl), once daily.\n(§2) For the whole experiment, rats were individually allocated in metabolic cages under temperature and humidity controlled conditions. Animals were allowed to eat regular chow and drink water ad libitum. At different times, 24-hour urine and blood samples were obtained. Urine was collected in graduated vessels supplemented with 100 μL of 0.1% sodium azide and 1 ml oil to prevent contamination and evaporation, respectively. Subsequently, urine was cleared by centrifugation at 1,175×g, aliquoted and stored at −80° C. Blood was drawn from a small incision in the tail and collected in heparinised capillaries. These were immediately centrifuged at 12,000×g and plasma was stored at −80° C. At the end of the experiment, rats were anesthetized with sodium pentobarbital (10 mg/kg). The kidneys were perfused with heparinised saline through the abdominal aorta, and they were immediately dissected. The right kidney and one half of the left one were swiftly frozen by immersion in liquid nitrogen, and stored at −80° C. Eventually, they were used for Western blot studies. For such a purpose, frozen tissues were homogenized under freezing conditions by hammer-smashing, until a fine powder was obtained. The powder was also kept at −80° C. The second half of the left kidney was immersed in 3.7% paraformaldehyde at 4° C. during 14-16 hours. After it, tissue samples were processed for immunohistochemical studies.\nProtein extracts were obtained from 100 mg tissue homogenate powder, prepared by homogenizing the kidneys with a tissue mixer (Ultra-Turrax T8, IKA®-Werwe) at 4° C. in homogenization buffer (140 mM NaCl, 20 mM Tris-HCl pH=7.5, 0.5 Methylenediaminetetraacetic acid—EDTA-, 10% glycerol, 1% Igepal CA-630, 1 μg/mL aprotinin, 1 μg/mL leupeptin, 1 μg/mL pepstatin A, 1 mM phenylmethylsulphonyl fluoride—PMSF-). Tissue homogenates were centrifuged at 22,000 g during 15 minutes at 4° C. Supernatants were collected. Protein concentration was measured with a commercial kit (BioRad) based on the Lowry method. 50 μg total protein from tissue extracts or 20 μL cleared urine from each sample were separated by electrophoresis in 10-15% acrylamide gels (Mini Protean II system, BioRad). Immediately, proteins were electrically transferred to an Immobilon-P membrane (Millipore). […]\nProtein concentration was determined by the Bradford method."}, "Wistar rats [2]": {"system": "Wistar rats", "test": "Renal function characterization (plasma creatinine, BUN, urinary protein and NAG excretion) of gentamicin-treated rats", "conditions": "for BUN concentration: vs control", "excerpt": "as §1, §2\n(§3) Plasma and urine concentration of creatinine and blood urea nitrogen (BUN) were determined by an automated analysis system (Reflotron®, Roche Diagnostics, Barcelona, Spain) and commercial reactive strips (Roche Diagnostics, Barcelona, Spain), using 32 μL of plasma and urine. This method has a lower detection limit of 0.5 mg/dL for creatinine. Samples reading under 0.5 mg/dL creatinine were head-to-head re-assayed by the colorimetric method of Jaffe (Hervey, 1953. Nature, 171: 1125).\n(§4) Urine protein concentration (mg/mL) was measured by the Bradford method (39). Daily protein excretion (mg/day) was obtained by multiplying urine protein concentration by the 24-hour urine flow (mL/day).\n(§5) Urine NAG activity (arbitrary units, AU/mL), as an estimation of urine NAG concentration, was measured by a commercial enzymatic test (Roche Diagnostics, Barcelona, Spain) following the manufacturer's instructions. Urine NAG activity was converted into daily NAG excretion (AU/day) by multiplying urine NAG activity by 24-hour urine flow (mL/day)."}, "[3]": {"system": "GM2 activator protein (GM2AP) in urine", "test": "Urinary GM2AP (Western blot) and renal function in humans treated with gentamicin", "assay_type": "in vivo", "conditions": "hospitalized patients under gentamicin regime for 2 or 3 days vs untreated controls", "excerpt": "Supernatants were collected.\nAs controls, the urine from age- and sex-matched individuals not receiving gentamicin was used."}, "[4]": {"system": "PAI-1, KIM-1 and vimentin in renal tissue", "test": "Western blot of renal tissue homogenates for markers of tissue damage and repair", "excerpt": "as §1, §2\n(§6) Protein extracts were obtained from 100 mg tissue homogenate powder, prepared by homogenizing the kidneys with a tissue mixer (Ultra-Turrax T8, IKA®-Werwe) at 4° C. in homogenization buffer (140 mM NaCl, 20 mM Tris-HCl pH=7.5, 0.5 Methylenediaminetetraacetic acid—EDTA-, 10% glycerol, 1% Igepal CA-630, 1 μg/mL aprotinin, 1 μg/mL leupeptin, 1 μg/mL pepstatin A, 1 mM phenylmethylsulphonyl fluoride—PMSF-). Tissue homogenates were centrifuged at 22,000 g during 15 minutes at 4° C. Supernatants were collected. Protein concentration was measured with a commercial kit (BioRad) based on the Lowry method. 50 μg total protein from tissue extracts or 20 μL cleared urine from each sample were separated by electrophoresis in 10-15% acrylamide gels (Mini Protean II system, BioRad). Immediately, proteins were electrically transferred to an Immobilon-P membrane (Millipore). After blocking the membrane to avoid unspecific binding, membranes were probed with antibodies against KIM-1 (R&D Systems), bone morphogenetic protein-7 (BMP-7, Santa Cruz Biotechnology), plasminogen activator inhibitor-1 (PAI-1, BD Biosciences), vimentin (Dako Denmark) and GM2 activator protein (GM2AP, see above)."}, "Wistar rats [5]": {"system": "Wistar rats", "test": "Survival rate and body weight evolution of rats treated with gentamicin", "assay_type": "in vivo", "conditions": "gentamicin 150 mg/kg/day (G-150), 7 days"}, "Wistar rats [6]": {"system": "Wistar rats", "test": "Kidney histology (haematoxylin and eosin)", "assay_type": "in vivo", "protocol": "Eventually, they were used for Western blot studies. […] The powder was also kept at −80° C. […] After it, tissue samples were processed for immunohistochemical studies.\nKidneys were kept in p-formaldehyde overnight at 4° C. Then, paraffin blocks were made and 5-μm tissue sections were cut and stained with hematoxilin and eosin. Photographs were taken under an Olympus BX51 microscope connected to an Olympus DP70 colour, digital camera."}, "Wistar rats [7]": {"system": "Wistar rats", "test": "Time course of markers of nephrotoxicity under gentamicin 150 mg/kg/day", "excerpt": "as §1, §2, §3, §4, §5, §6"}, "[8]": {"conditions": "G-150, after inception of treatment"}},
  "note": "Read-outs that look alike come from different tables or passages of the source.",
  "data": [
    {"compound": "N.N.[Cl][Pt][Cl]", "note": "[cisplatin]", "values": [
      {"measurement": "urinary GM2AP (Western blot)", "setting": "[1]; two doses of cisplatin 10 mg/kg on first and third days, urine 4 days after treatment inception", "result": "high levels"}
    ]},
    {"compound": "gentamicin", "values": [
      {"measurement": "nephrotoxic effect (pilot dose titration)", "setting": "Wistar rats [2]; 6 daily doses of 50 mg/kg/day (G-50)", "result": "no signs of nephrotoxicity"},
      {"measurement": "nephrotoxic effect (pilot dose titration)", "setting": "Wistar rats [2]; 6 daily doses of 150 mg/kg/day (G-150)", "result": "marked renal failure"},
      {"measurement": "BUN concentration", "setting": "Wistar rats [2]; G-50, 7 days", "result": "not modified"},
      {"measurement": "BUN concentration", "setting": "Wistar rats [2]; G-150, 7 days", "result": "profoundly altered"},
      {"measurement": "urinary level of GM2AP (Western blot)", "setting": "[3]", "result": "clearly higher"},
      {"measurement": "renal level of KIM-1", "setting": "[4]; G-50, 7 days, vs control", "result": "no increment"},
      {"measurement": "renal level of PAI-1", "setting": "[4]; G-50, 7 days, vs control", "result": "no increment"},
      {"measurement": "renal level of vimentin", "setting": "[4]; G-50, 7 days, vs control", "result": "no increment"},
      {"measurement": "renal level of KIM-1", "setting": "[4]; G-150, 7 days", "result": "clear increase"},
      {"measurement": "renal level of PAI-1", "setting": "[4]; G-150, 7 days", "result": "clear increase"},
      {"measurement": "renal level of vimentin", "setting": "[4]; G-150, 7 days", "result": "clear increase"},
      {"measurement": "level of GM2AP in urine (Western blot)", "setting": "[1]; G-50, 7 days, vs control", "result": "differential level"},
      {"measurement": "GM2AP in urine (differential proteomics, 2D-electrophoresis)", "setting": "[1]; G-50, 7 days, absent in control urine", "result": "highly expressed"},
      {"measurement": "level of GM2AP in urine (Western blot)", "setting": "[1]; G-150, 7 days, overt renal failure", "result": "increased"},
      {"measurement": "body weight", "setting": "Wistar rats [5]", "result": "body weight loss"},
      {"measurement": "death rate", "setting": "Wistar rats [5]", "result": "~50", "unit": "%"},
      {"measurement": "renal histology", "setting": "Wistar rats [6]; G-50, 7 days, vs control", "result": "no gross tissue alterations"},
      {"measurement": "renal histology", "setting": "Wistar rats [6]; G-150, 7 days", "result": "massive tubular necrosis"},
      {"measurement": "day by which BUN concentration was increased", "setting": "Wistar rats [7]; [8]", "result": 4, "unit": "days"},
      {"measurement": "day by which proteinuria was increased", "setting": "Wistar rats [7]; [8]", "result": 4, "unit": "days"},
      {"measurement": "day at which urinary level of GM2AP started to increase", "setting": "Wistar rats [7]; G-150, urine, Western blot", "result": 1, "unit": "days"},
      {"measurement": "day by which urinary level of KIM-1 was increased", "setting": "Wistar rats [7]; G-150, urine, Western blot", "result": 4, "unit": "days"},
      {"measurement": "day by which urinary level of PAI-1 was increased", "setting": "Wistar rats [7]; G-150, urine, Western blot", "result": 4, "unit": "days"},
      {"measurement": "time from beginning of administration at which GM2AP is detected by Western blot", "setting": "Wistar rats [7]; gentamicin 150 mg/kg/day, urine", "result": 24, "unit": "h"}
    ]}
  ]
}
